Read-outs that look alike come from different tables or passages of the source.
Key:
HSP90α = HSP90α (Homo sapiens (Human), UniProt P07900); experiment: Fluorescence polarization assay, binding ability to HSP90, benzamide compounds; conditions: GA-FITC 100 nM; read-out: HSP90 FP) (IC50; nM)
Experimental: 1 M dithiothreitol (DTT), 10 mg/m: BGG (bovine gamma globulin) were added to hexafluorobenzene (HFB) buffer (20 mM HEPES pH 7.3, 50 mM KCl, 5 mM MgCl2, 20 mM Na2MoO4, 0.01% NP4O, 3rd distilled water) and mixed. Then, 100 nM […] (GA)-FITC (Fluorescein isothiocyanate) was added and reacted at room temperature for 10 minutes. Each 100 μL of the mixture was dispensed into the control wells of a 96-well plate, 2 μL of HSP90α was added to the remaining mixture, and each 100 μL of the other wells was dispensed. […] The binding ability of the compound to HSP90 was expressed as mP (millipolarization unit=1000 mP unit).

H1975 cells = experiment: MTS cell viability in H1975 cells resistant to Gefitinib; type: cell-based; conditions: H1975, 3 days
Experimental: To confirm the cell viability according to the concentration of the compound synthesized in H1975 cells (ATCC) resistant to Gefitinib, MTS [3-(4,5-dimethylthiazol-2-yl)-5-[…]carboxymethoxyphenyl)-2-(4-sulfophenyl)-2H-tetrazolium, inner salt] analysis was performed. When the cells were cultured so as to occupy 80% of the bottom of the culture dish, the cells were detached and diluted with RPMI 1640 medium to a concentration of 1.5×10^3 cells/well. Each 100 μL of the suspension was added to each well of a 96-well plate and cultured for 14 hours. Then, the medium was changed to the culture solution treated with compound of each concentration each concentration (1a-g: 0, 1, 5, 10, 30, 50 or 100 μM, 14a-I, 16a, b, 21a-f: 0, 0.01, 0.1, 1, 5, 10, 30, 50, 70 or 100 μM), and cultured for 3 days. Each 20 μL of the MTS solution was dispensed into each well and reacted for 1 hour at 37° C. in an incubator supplied with 5% CO2.

[1] = system: HSP90 client proteins (Her2, EGFR, Met, Akt, c-Raf) and HSP70 in H1975 cells; experiment: Analysis of protein expression (western blot), Compound 21f; type: cell-based
Experimental: Compound 21f having good efficacy was selected and HSP90 client protein proliferation effect in the same cell line was confirmed, in which the HSP90 client proteins were Her2 (human EGFR-related 2), EGFR (epidermal growth factor receptor), Met and c-Raf were used.
H1975 cells resistant to Gefitinib were cultured in a medium supplemented with 10% fetal bovine serum (FBS) for 24 hours, and the cells were detached, harvested and diluted with a RPMI 1640 medium so as to be 5×10^5 cells/well. Each 5 mL of the suspension was added to […] culture dish and cultured for 24 hours. Then, the medium was changed to the culture solution treated with each compound of concentration (21f: 0, 0.05, 0.1, 0.5 or 1 μM, GA: 1 μM), and cultured for 24 hours. After culture, the cells were harvested and centrifuged at 1300 rpm for 5 minutes at 4° C., and the supernatant was removed. The pellet was washed with phosphate buffered saline, centrifuged once again under the same conditions, and the supernatant was removed. Lysis buffer was added to the remaining pellet and lysed by vortexing at 5 minute intervals for 30 minutes. The supernatant was separated by centrifugation at 16000 rcf for 4 minutes at 4° C., and proteins were quantified using BCA ([…]) kit. SDS-PAGE (sodium dodecylsulfate-polyacrylamide gel electrophoresis) was performed using 10, 12% running gel and 4% stacking gel (10 mA per gel). The separated proteins were transferred to an immunoblot PVDF membrane (polyvinylidene fluoride membrane) at 100 V for 75 minutes. The membranes were blocked with 5% skim milk solution for 2 hours and then added a primary antibody diluted in the ratio of 1: 750-1,000 in 0.1% tween-20 solution and reacted at 4° C. for 12 hours. After washing three times with TBS-T (Tris-buffered saline and Tween 20 containing Tween 20) and detected with an image analyzer using ECL (enhanced chemiluminescence) solution.

H1975 [2] = experiment: MTS cell proliferation / survival assay; type: cell-based
Experimental: Sk-Br3 (Korean cell line bank), a breast cancer cell, and H1975 cell (ATCC), a nonsmall cell lung cancer, were cultured in RPMI 1640 containing 25 mM HEPES (4-(2-hydroxyethyl)-1-piperazineethanesulfonic acid) and RPMI 1640 containing L-glutamine (containing streptomycin ([…]), penicillin (100 units/mL) and 10% fetal bovine serum (FBS)).
The cells were cultured under a humidified atmosphere of 37° C. and 5% CO2.
Next, non-metastatic lung cancer cells were treated with Compound 17 and the cell proliferation rate or cell survival rate was measured by MTS [3-(4,5-dimethylthiazol-2-yl)-5-(3-carboxymethoxyphenyl)-2-2H-tetrazolium, inner salt] analysis.
Cells were dispensed in 96-well plates at 3000 cell/well (Sk-Br3) and 2000 cell/well (H1975), and 100 μL of the medium was added per well and then was incubated overnight.
Cell proliferation was evaluated using the Promega Cell Titer 96 Aqueous One Solution cell proliferation assay.
After compound and cell culture, 20 μL of assay substrate solution was added to each well and incubated at 37° C. for an additional 1 hour.
Cell proliferation was confirmed by measuring the absorbance at 490 nm using a microplate reader (Tecan Infinite F200 Proplate reader).

LogP = type: physicochemical; conditions: called measured values of LogP
Experimental: All experimental data were analyzed using Prism software (version 5.0, Graphpad Software, San Diego, Calif.). In addition, tPSA (Topological Polar Surface Area) calculated using Chemdraw software and the measured values of LogP are shown in Tables 1 and 2 below.

H1975 [3] = experiment: H1975 colony formation (clogenic assay); type: cell-based; conditions: 0.05 μM, 3 weeks, FIG. 3
Experimental: H1975 cells were treated with Compound 17 at a concentration of 0.05 or 0.5 μM for 3 weeks and then clogenic assay was performed.
First, RPMI1640 medium (10% FBS, 0.48% agar) was added to a 6-well plate and hardened, and then, 10000 cells (H1975) were dispensed in a medium containing RPMI1640 medium (10% FBS, 0.33% agar) and solidified. After solidification, the cells were treated with compound at a concentration of 0.05 or 0.5 μM for 24 hours, followed by culturing for 3 weeks, and then colony formation was confirmed using a crystal violet staining solution.

[4] = system: HSP90 client protein of EGFR, Her2, Met, Akt, c-Raf, Cpk4; experiment: Protein expression analysis (western blotting), Compound 17; type: cell-based; conditions: 24 hours, FIG. 4
Experimental: Next, the cells were dispensed into 100 mm culture dishes (1×10^6/dish) and adhered to the bottom surface overnight. Compound 17 at a concentration of 0.05, 0.1, 0.5 or 1 μM was added to the cells, followed by further culture for 24 hours.
In addition, cells were treated with DMSO (1%) or geladinamycin (1 μM) as a control and cultured for 24 hours.
The cultured cells were harvested and lysed in ice-cold lysis buffer (23 mM Tris-HCl pH 7.6, 130 mM NaCl, 1% NP40, 1% sodium deoxycholate, 0.1% SDS (sodium dodecylsulfate)), and 30 μg of the lysate was separated by SDS-PAGE (SDS-polyacrylamide gel electrophoresis) and transferred to a PVDF membrane (Bio-Rad).
Membranes were blocked with TBST (Tween 20 containing Tris-Buffered Saline) containing 5% skim milk and incubated with the respective primary antibodies [EGFR (Epidermal growth factor receptor), Her2 (human epidermal growth factor receptor type 2), Met, N-cadherin, E-cadherin, α-tubulin, acetyl-α-tubulin, protein kinase B (Akt), c-Raf, Cdk4 (Cyclin-dependent kinase 4), HSP90, HSP70, PARP (Poly ADT-ribose Polymerase), caspase 3, cleaved caspase 3, truncated caspase 8, B-cell lymphoma 2 (Bcl-2), Bax or β-Actin, purchased from Cell Signaling Technology (USA)].
After binding to a secondary antibody conjugated with horseradish peroxidase, the protein was visualized by ECL (electrochemiluminescence, GE healthcare, USA).

Row | SMILES | IC50 (HSP90α) | EC50 (H1975 cells; read-out: H1975 (EC50; μM)) | EC50 (H1975 cells; read-out: H1975 EC50) | expression of HSP90 client proteins ([1]; H1975, 0.05-1 μM, 24 hours, FIG. 5) | concentration at which expression of HSP70 was increased ([1]; H1975, 24 hours) | concentration at which expression was significantly decreased: EGFR ([1]; H1975, 24 hours) | concentration at which expression was significantly decreased: Her2, Met, and Akt ([1]; H1975, 24 hours) | cell death (cell survival) (H1975 [2]; 72 hours, FIG. 2B) | IC50 (H1975 [2]; Homo sapiens, NCI-H1975, read-out: IC50 for H1975) | inhibition at 10 µM (H1975 [2]; Homo sapiens, NCI-H1975, read-out: Inhibition rate at 10 μM (%)) | inhibition at 30 µM (H1975 [2]; Homo sapiens, NCI-H1975, read-out: Inhibition rate at 30 μM (%)) | proliferation rate of the cells (H1975 [2]; non-small cell lung cancer cells, 1, 2 and 3 days, FIG. 2A) | logP (LogP) | colony formation of H1975 (H1975 [3]) | HSP protein inhibition / degradation of HSP90 client protein ([4]; 0.05-1 μM) | concentration at which most of the client proteins were denatured [4]
1 | CCCNC(=O)c1ccc(CN(C)C(=O)c2cc(C(C)C)c(O)cc2O)cc1 [Compound 21f, 2,4-dihydroxy-5-isopropyl-N-methyl-N-(4-(propylcarbamoyl)benzyl) benzamide] | 5.3 nM | 0.42 µM | 0.42 µM | inhibited in a concentration-dependent manner | 0.5 µM | 0.1 µM | 0.5 µM |  |  |  |  |  |  |  |  | 
2 | CC(C)c1cc(C(=O)N2CCN(C)CC2c2ccccc2)c(O)cc1O (stereo not shown) [Compound 17, (2,4-dihydroxy-5-isopropylphenyl)(4-methyl-2-phenylpiperazin-1-yl)methanone] |  |  |  |  |  |  |  | cell death was also observed | 98000 nM | 72.1% | 77.6% | inhibited in a concentration-dependent manner | 3.8 | inhibited | inhibited HSP protein in concentration-dependent manner | 500 nM

Source: patent publication US10464907B2, “Compound having HSP90 inhibitory activity or pharmaceutically acceptable salt thereof, and medical use thereof” (priority 2016, dated 2019)
